#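 Protocol summary: plate cells (96-well), add compound at 5 concentrations, incubate 48 h, interpolate endpoints linearly. GI50 is the concentration that inhibits growth by half. TGI marks complete inhibition of growth.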
# Key:
# Test in all cases: growth of human tumour cells (NCI), 48 h
# [1] = system: 786-0 renal
# [2] = system: A498 renal
# [3] = system: A549 NSCLC
# [4] = system: ACHN renal
# [5] = system: BT-549 breast
# [6] = system: CAKI-1 renal
# [7] = system: CCRF-CEM leukemia
# [8] = system: COLO 205 colon
# [9] = system: DU-145 prostate
# [10] = system: EKVX NSCLC
# [11] = system: HCC-2998 colon
# [12] = system: HCT-116 colon
# [13] = system: HCT-15 colon
# [14] = system: HL-60(TB) leukemia
# [15] = system: HOP-62 NSCLC
# [16] = system: HOP-92 NSCLC
# [17] = system: HS 578T breast
# [18] = system: HT29 colon
# [19] = system: IGROV1 ovarian
# [20] = system: K-562 leukemia
# [21] = system: KM12 colon
# [22] = system: LOX IMVI melanoma
# [23] = system: M14 melanoma
# [24] = system: MALME-3M melanoma
# [25] = system: MCF7 breast
# [26] = system: MDA-MB-231 breast
# [27] = system: MDA-MB-435
# [28] = system: MDA-MB-468 breast
# [29] = system: MOLT-4 leukemia
# [30] = system: NCI-H226 lung
# [31] = system: NCI-H23 lung
# [32] = system: NCI-H460 lung
# [33] = system: NCI-H522 lung
# [34] = system: NCI/ADR-RES ovarian
# [35] = system: OVCAR-3 ovarian
# [36] = system: OVCAR-4 ovarian
# [37] = system: OVCAR-5 ovarian
# [38] = system: OVCAR-8 ovarian
# [39] = system: PC-3 prostate
# [40] = system: RPMI-8226 leukemia
# [41] = system: RXF 393 renal
# [42] = system: SF-268 CNS
# [43] = system: SF-295 CNS
# [44] = system: SF-539 CNS
# [45] = system: SK-MEL-2 melanoma
# [46] = system: SK-MEL-28 melanoma
# [47] = system: SK-MEL-5 melanoma
# [48] = system: SK-OV-3 ovarian
# [49] = system: SN12C renal
# [50] = system: SNB-19 CNS
# [51] = system: SNB-75 CNS
# [52] = system: SR leukemia
# [53] = system: SW-620 colon
# [54] = system: T-47D breast
# [55] = system: TK-10 renal
# [56] = system: U251 CNS
# [57] = system: UACC-257 melanoma
# [58] = system: UACC-62 melanoma
# [59] = system: UO-31 renal
compound,measurement,setting,value
c1ccc(C(=C(c2ccc(OCCN3CCCCC3)cc2)c2ccc(OCCN3CCCCC3)cc2)C2CCCC2)cc1,GI50,[1],5.54 µM
same,TGI,[1],> 18 µM
same,GI50,[2],> 18 µM
same,TGI,[2],> 18 µM
same,GI50,[3],3.29 µM
same,TGI,[3],7.96 µM
same,GI50,[4],> 18 µM
same,TGI,[4],> 18 µM
same,GI50,[5],2.8 µM
same,TGI,[5],5.38 µM
same,GI50,[6],7.87 µM
same,TGI,[6],> 18 µM
same,GI50,[7],3 µM
same,TGI,[7],6.55 µM
same,GI50,[8],3.24 µM
same,TGI,[8],6.71 µM
same,GI50,[9],4.25 µM
same,TGI,[9],10.5 µM
same,GI50,[10],8.68 µM
same,TGI,[10],> 18 µM
same,GI50,[11],2.83 µM
same,TGI,[11],5.33 µM
same,GI50,[12],3.48 µM
same,TGI,[12],6.82 µM
same,GI50,[13],> 18 µM
same,TGI,[13],> 18 µM
same,GI50,[14],1.68 µM
same,TGI,[14],5.42 µM
same,GI50,[15],5.01 µM
same,TGI,[15],> 18 µM
same,GI50,[16],2.57 µM
same,TGI,[16],5.85 µM
same,GI50,[17],3.76 µM
same,TGI,[17],11.8 µM
same,GI50,[18],3.1 µM
same,TGI,[18],6.24 µM
same,GI50,[19],2.98 µM
same,TGI,[19],5.65 µM
same,GI50,[20],1.64 µM
same,TGI,[20],> 18 µM
same,GI50,[21],3.45 µM
same,TGI,[21],6.48 µM
same,GI50,[22],2.94 µM
same,TGI,[22],5.43 µM
same,GI50,[23],3.43 µM
same,TGI,[23],8.04 µM
same,GI50,[24],2.69 µM
same,TGI,[24],5.1 µM
same,GI50,[25],1.93 µM
same,TGI,[25],4.52 µM
same,GI50,[26],2.94 µM
same,TGI,[26],6.01 µM
same,GI50,[27],2.59 µM
same,TGI,[27],5.37 µM
same,GI50,[28],2.38 µM
same,TGI,[28],5.19 µM
same,GI50,[29],2.59 µM
same,TGI,[29],7.72 µM
same,GI50,[30],3.32 µM
same,TGI,[30],13.3 µM
same,GI50,[31],5.16 µM
same,TGI,[31],17.9 µM
same,GI50,[32],2.82 µM
same,TGI,[32],5.41 µM
same,GI50,[33],2.61 µM
same,TGI,[33],5.9 µM
same,GI50,[34],> 18 µM
same,TGI,[34],> 18 µM
same,GI50,[35],3.05 µM
same,TGI,[35],5.85 µM
same,GI50,[36],5.7 µM
same,TGI,[36],> 18 µM
same,GI50,[37],4.67 µM
same,TGI,[37],> 18 µM
same,GI50,[38],6.93 µM
same,TGI,[38],> 18 µM
same,GI50,[39],3.58 µM
same,TGI,[39],7.79 µM
same,GI50,[40],3.44 µM
same,TGI,[40],8.24 µM
same,GI50,[41],2.91 µM
same,TGI,[41],7.11 µM
same,GI50,[42],3.53 µM
same,TGI,[42],9.09 µM
same,GI50,[43],5.14 µM
same,TGI,[43],> 18 µM
same,GI50,[44],2.88 µM
same,TGI,[44],5.4 µM
same,GI50,[45],3.78 µM
same,TGI,[45],9.2 µM
same,GI50,[46],3.03 µM
same,TGI,[46],5.81 µM
same,GI50,[47],2.73 µM
same,TGI,[47],5.23 µM
same,GI50,[48],4.27 µM
same,TGI,[48],11.8 µM
same,GI50,[49],4.08 µM
same,TGI,[49],11.8 µM
same,GI50,[50],4.39 µM
same,TGI,[50],14.6 µM
same,GI50,[51],1.97 µM
same,TGI,[51],13.8 µM
same,GI50,[52],2.99 µM
same,TGI,[52],8.46 µM
same,GI50,[53],2.76 µM
same,TGI,[53],5.35 µM
same,GI50,[54],3.98 µM
same,TGI,[54],15.4 µM
same,GI50,[55],8.11 µM
same,TGI,[55],> 18 µM
same,GI50,[56],3.56 µM
same,TGI,[56],8.23 µM
same,GI50,[57],4.11 µM
same,TGI,[57],12 µM
same,GI50,[58],2.9 µM
same,TGI,[58],5.35 µM
same,GI50,[59],> 18 µM
same,TGI,[59],> 18 µM

# — PubChem BioAssay (NCI)
